According to ChEMBL document CHEMBL1201862, “PubChem BioAssay data set” (2004):
The source made the active and inactive calls.

Key:
[1] = target: T1, Apoptotic protease-activating factor 1 (Homo sapiens, UniProt O14727); assay type: functional
T1 sequence (O14727 whole entry): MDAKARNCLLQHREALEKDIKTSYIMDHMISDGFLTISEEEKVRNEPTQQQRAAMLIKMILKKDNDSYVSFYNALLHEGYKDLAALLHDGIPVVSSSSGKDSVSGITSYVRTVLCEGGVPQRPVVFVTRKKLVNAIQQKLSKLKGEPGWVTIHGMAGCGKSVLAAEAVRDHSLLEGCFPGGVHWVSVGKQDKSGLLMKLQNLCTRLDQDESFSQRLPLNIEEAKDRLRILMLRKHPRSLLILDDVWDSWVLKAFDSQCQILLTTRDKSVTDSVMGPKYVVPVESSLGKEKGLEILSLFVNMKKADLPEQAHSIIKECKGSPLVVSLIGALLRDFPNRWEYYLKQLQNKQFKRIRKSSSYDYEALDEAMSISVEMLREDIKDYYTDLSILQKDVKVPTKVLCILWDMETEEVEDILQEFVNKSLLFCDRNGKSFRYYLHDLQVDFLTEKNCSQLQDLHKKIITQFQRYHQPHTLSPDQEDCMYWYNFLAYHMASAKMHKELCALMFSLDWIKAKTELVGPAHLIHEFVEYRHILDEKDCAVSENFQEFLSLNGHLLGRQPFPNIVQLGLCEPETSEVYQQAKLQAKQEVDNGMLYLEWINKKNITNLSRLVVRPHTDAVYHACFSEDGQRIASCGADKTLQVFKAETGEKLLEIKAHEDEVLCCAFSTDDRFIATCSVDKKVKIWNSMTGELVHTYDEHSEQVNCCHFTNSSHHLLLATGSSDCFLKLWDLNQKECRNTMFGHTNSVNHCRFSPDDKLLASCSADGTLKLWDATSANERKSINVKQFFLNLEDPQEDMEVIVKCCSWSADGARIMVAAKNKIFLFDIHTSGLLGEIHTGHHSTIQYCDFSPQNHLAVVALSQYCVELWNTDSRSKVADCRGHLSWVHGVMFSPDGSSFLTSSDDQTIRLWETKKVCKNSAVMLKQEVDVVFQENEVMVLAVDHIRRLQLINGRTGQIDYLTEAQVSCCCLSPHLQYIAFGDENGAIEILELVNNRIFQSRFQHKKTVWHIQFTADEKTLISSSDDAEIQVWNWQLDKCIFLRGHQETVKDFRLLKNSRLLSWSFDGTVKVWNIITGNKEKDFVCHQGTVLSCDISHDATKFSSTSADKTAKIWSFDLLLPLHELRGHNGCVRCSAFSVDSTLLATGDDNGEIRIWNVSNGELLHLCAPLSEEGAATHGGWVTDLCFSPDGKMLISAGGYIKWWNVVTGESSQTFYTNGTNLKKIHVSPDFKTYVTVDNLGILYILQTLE

[2] = target: Long-chain-fatty-acid--AMP ligase FadD28 (Mycobacterium tuberculosis, UniProt P9WQ59); assay: Fluorescence polarization aasay to screen for inhibitors that compete for the binding of FadD28 to a bisubstrate Measured in Biochemical System Using Plate Reader - 2147-01_Inhibitor_Dose_CherryPick_Activity.; assay type: functional, Mycobacterium tuberculosis H37Rv
Long-chain-fatty-acid--AMP ligase FadD28, sequence (P9WQ59 whole entry): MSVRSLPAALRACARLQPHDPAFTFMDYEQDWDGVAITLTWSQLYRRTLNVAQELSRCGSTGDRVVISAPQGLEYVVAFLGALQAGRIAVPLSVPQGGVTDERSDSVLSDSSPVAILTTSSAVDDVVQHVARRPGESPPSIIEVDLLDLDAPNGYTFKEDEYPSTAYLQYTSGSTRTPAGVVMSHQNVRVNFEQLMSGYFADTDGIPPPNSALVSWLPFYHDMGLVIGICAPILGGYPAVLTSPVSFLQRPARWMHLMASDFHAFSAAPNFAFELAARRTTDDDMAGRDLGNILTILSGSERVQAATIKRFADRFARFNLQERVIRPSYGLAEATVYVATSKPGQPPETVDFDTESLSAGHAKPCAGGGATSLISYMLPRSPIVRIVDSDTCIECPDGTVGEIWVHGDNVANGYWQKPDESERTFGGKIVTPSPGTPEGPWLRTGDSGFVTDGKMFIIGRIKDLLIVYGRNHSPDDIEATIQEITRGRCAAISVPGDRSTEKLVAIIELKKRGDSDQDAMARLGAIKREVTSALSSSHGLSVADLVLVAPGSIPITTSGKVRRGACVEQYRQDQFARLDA

Genome polyprotein = Genome polyprotein (dengue virus type 2, UniProt P29990); assay: flavivirus cap methylation enzyme inhibition – biochemical, confirmation dose response, primary screen (AID 588689); assay type: functional
Genome polyprotein, sequence (P29990 2492-3391 limits assumed): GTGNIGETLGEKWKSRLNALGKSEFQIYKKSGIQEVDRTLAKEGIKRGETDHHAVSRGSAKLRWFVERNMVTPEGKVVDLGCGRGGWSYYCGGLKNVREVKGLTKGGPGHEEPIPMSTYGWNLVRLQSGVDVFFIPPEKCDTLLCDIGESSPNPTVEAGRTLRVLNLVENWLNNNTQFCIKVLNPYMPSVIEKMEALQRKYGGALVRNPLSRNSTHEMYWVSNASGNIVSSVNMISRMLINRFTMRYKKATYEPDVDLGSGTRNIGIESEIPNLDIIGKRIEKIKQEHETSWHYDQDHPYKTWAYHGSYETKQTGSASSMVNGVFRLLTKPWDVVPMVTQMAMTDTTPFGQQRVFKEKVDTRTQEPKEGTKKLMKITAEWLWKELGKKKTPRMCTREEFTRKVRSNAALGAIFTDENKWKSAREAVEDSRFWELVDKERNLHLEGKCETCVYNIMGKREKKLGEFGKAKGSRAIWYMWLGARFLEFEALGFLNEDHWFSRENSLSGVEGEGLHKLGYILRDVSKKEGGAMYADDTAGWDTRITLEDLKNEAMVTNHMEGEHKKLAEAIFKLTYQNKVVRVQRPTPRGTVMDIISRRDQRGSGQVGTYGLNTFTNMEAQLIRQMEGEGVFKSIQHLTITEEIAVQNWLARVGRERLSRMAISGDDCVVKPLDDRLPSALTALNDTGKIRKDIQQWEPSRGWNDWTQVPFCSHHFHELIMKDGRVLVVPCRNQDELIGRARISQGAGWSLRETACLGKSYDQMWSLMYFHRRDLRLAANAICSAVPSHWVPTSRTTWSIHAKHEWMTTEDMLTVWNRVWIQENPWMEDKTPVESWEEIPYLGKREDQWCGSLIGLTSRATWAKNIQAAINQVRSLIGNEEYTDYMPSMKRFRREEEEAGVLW

Vero = assay: viability of Vero cells under compound – cytotoxicity control for flavivirus capping enzyme inhibitors (AID 588742); assay type: functional; conditions: Chlorocebus sabaeus
[3] = target: DNA repair and recombination protein RAD54-like (Homo sapiens, UniProt Q92698); assay: RAD54 Holliday junction migration blockers – biochemical, fluorescence, cherry-picked samples, dose series, confirmation (AID 651657); assay type: functional
DNA repair and recombination protein RAD54-like, sequence (Q92698 whole entry): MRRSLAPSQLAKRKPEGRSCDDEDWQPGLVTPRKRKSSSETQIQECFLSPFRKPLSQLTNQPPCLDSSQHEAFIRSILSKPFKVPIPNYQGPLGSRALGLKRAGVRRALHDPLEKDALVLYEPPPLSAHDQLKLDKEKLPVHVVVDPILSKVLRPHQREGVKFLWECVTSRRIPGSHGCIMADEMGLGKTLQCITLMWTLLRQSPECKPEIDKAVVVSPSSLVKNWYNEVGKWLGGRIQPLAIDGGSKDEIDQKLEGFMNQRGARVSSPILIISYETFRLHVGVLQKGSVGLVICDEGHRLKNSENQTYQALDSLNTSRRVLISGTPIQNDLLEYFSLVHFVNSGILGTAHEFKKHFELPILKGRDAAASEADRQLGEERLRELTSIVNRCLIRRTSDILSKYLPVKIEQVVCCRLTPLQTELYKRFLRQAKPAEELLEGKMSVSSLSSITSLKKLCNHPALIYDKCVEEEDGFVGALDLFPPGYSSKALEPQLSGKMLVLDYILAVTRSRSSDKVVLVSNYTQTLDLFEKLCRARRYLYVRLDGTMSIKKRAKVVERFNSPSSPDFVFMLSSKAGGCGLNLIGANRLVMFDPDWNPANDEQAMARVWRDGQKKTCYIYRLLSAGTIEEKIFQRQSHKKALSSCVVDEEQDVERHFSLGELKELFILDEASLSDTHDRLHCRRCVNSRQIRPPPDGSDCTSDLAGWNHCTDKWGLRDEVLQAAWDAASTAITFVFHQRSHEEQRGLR

[4] = target: T2, DNA repair protein RAD52 homolog (Homo sapiens, UniProt P43351); assay type: functional, biochemical
T2 sequence (P43351 whole entry): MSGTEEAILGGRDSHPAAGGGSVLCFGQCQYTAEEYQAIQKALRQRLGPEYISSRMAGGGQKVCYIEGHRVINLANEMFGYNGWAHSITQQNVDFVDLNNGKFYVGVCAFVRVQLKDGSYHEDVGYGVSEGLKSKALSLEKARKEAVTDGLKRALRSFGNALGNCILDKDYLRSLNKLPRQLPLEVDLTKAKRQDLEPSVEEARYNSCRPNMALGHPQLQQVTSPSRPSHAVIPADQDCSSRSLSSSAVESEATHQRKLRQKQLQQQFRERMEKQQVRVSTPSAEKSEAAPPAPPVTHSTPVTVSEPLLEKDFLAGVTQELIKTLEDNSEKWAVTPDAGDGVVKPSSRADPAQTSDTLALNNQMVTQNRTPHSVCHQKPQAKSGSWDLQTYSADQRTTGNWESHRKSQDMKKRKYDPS

[5] = target: T3, Short transient receptor potential channel 4 (Mus musculus, UniProt Q9QUQ5); assay: calcium entry via TRPC4 opening agents – cell-based, HEK293 TRPC4/mu-opioid, Fluo-4 calcium, dose response (AID 434937); assay type: functional
T3 sequence (Q9QUQ5 whole entry): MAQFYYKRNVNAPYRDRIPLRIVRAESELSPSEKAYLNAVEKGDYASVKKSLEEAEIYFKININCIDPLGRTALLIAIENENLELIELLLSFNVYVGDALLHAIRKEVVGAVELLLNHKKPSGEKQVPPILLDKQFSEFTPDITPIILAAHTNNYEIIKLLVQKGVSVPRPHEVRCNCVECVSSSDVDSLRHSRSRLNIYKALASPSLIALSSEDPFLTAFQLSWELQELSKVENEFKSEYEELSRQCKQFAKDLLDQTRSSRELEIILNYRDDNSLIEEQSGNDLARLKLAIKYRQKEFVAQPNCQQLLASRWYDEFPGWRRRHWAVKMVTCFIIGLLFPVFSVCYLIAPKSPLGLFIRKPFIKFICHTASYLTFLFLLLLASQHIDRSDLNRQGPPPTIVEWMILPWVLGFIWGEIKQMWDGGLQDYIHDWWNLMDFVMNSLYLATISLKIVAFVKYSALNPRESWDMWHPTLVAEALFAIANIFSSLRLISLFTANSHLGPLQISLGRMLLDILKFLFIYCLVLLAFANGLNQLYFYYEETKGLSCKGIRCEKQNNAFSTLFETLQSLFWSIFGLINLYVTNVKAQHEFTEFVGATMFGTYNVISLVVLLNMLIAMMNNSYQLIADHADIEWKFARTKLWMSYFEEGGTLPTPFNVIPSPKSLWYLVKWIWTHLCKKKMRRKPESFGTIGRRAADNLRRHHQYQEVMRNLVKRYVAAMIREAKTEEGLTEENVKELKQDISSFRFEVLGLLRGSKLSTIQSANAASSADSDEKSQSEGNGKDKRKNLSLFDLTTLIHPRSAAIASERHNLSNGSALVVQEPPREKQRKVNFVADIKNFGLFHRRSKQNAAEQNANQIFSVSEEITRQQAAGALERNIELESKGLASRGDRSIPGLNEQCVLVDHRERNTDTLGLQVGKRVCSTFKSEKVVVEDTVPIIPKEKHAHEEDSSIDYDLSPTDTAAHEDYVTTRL

cells = assay type: functional
[6] = inhibition of ARNT PAS-B/TACC3 complex formation – biochemical, AlphaScreen, cherry-picked samples, confirmation (AID 651703); assay type: functional, Homo sapiens;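 further: His-tagged ARNT PAS-B domain paired with GST-TACC3 E629A dimer coactivator fragment; potency of inhibitors that break up the complex and lower AlphaScreen signal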
[7] = target: T4, Corticotropin-releasing factor receptor 2/Corticotropin-releasing factor-binding protein (Homo sapiens, UniProt P24387+Q13324); assay: Dose Response confirmation of uHTS hits for small molecule antagonists of the CRF-binding protein and CRF-R2 receptor complex.; assay type: functional; conditions: read-out: IC50_Mean
T4 sequence (Q13324 whole entry): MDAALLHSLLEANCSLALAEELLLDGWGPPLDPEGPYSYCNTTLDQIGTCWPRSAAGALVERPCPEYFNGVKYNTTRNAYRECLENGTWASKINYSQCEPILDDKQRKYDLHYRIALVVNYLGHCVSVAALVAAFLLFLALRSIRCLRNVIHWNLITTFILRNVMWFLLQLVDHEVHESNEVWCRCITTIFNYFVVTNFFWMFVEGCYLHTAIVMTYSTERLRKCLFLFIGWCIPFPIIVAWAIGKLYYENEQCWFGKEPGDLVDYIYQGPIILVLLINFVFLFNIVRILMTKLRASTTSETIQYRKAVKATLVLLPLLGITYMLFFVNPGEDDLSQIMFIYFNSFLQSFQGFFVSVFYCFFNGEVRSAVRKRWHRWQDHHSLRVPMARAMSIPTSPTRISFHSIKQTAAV
T4 sequence (P24387 whole entry): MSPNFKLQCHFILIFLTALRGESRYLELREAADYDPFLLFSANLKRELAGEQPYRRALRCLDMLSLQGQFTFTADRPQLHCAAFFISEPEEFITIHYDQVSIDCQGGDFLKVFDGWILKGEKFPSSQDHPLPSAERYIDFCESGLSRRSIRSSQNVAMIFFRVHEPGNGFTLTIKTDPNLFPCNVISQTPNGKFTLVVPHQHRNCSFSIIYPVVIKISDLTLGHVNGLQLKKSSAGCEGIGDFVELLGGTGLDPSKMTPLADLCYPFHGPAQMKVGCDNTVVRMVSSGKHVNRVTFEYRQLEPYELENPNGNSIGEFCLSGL

[8] = target: T4, Corticotropin-releasing factor receptor 2/Corticotropin-releasing factor-binding protein; assay: activators of CRF receptor 2 with binding protein – uHTS hits, confirmation (AID 602473); assay type: functional; conditions: read-out: EC50_Mean
[9] = blockers of CRF-binding protein–CRF-R2 complex – cell-based, uHTS hits, 384-well, dose response (AID 651639); assay type: functional, Homo sapiens; conditions: read-out: IC50_Mean
Cytochrome P450 2C9 = Cytochrome P450 2C9 (Homo sapiens, UniProt P11712)
Cytochrome P450 2C9, sequence (P11712 whole entry): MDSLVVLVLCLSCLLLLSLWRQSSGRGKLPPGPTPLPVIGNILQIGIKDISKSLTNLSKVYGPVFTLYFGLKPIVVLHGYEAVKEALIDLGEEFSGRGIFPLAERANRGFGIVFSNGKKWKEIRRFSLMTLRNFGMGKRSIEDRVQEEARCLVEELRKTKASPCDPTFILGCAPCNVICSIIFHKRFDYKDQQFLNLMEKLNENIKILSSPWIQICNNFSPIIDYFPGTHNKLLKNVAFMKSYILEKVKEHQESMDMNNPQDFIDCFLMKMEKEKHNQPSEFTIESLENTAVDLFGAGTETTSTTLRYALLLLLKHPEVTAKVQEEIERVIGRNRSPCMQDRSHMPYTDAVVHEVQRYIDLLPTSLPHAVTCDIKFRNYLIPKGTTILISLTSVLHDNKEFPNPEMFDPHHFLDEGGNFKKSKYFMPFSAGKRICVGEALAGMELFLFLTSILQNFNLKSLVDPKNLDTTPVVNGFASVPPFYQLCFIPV

[10] = target: T5, Endoribonuclease toxin MazF (Escherichia coli K-12, UniProt P0AE70); assay: activation of MazEF endoribonuclease cleavage – biochemical, fluorescence, single-stranded RNA substrate, uHTS hits, dose response (AID 588481); assay type: functional
T5 sequence (P0AE70 whole entry): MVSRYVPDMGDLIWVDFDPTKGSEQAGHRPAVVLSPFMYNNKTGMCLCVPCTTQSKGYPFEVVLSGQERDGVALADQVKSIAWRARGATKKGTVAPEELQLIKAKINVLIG

Cytochrome P450 3A4 = Cytochrome P450 3A4 (Homo sapiens, UniProt P08684);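 further: CYP3A4 tested as one member of a cytochrome P450 panel screen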
Cytochrome P450 3A4, sequence (P08684 whole entry): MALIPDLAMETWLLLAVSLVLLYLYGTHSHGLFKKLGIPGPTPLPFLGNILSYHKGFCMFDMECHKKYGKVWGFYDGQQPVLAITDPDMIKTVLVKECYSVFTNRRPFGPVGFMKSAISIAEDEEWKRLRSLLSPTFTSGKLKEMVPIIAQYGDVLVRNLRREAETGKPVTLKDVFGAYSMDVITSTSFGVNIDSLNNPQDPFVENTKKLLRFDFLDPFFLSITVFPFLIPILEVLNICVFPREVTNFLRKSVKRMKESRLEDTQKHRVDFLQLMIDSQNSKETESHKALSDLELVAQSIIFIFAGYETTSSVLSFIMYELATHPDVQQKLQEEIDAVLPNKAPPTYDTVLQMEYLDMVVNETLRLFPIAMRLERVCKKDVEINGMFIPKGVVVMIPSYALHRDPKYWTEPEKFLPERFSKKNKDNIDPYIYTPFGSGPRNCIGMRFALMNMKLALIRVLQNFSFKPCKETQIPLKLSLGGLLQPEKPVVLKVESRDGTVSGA

[11] = target: T5, Endoribonuclease toxin MazF; assay: substrate-only fluorescence increase artefacts – biochemical, single-stranded RNase substrate, counter-screen for MazEF activator project, dose response (AID 588502); assay type: functional
[12] = activation of miR-122 Renilla sensor silencing – cell-based, Huh7 psiCHECK-miR122, Renilla luciferase, cherry-picked, dose response (AID 651956); assay type: functional;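 further: huh7 hepatoma cells stably carrying a psiCHECK-2 miR-122 sensor plasmid; renilla luciferase signal reporting endogenous miR-122 activity after 48 h compound exposure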
[13] = target: Glucose-6-phosphate 1-dehydrogenase (Homo sapiens, UniProt P11413); assay: inhibition of Homo sapiens G6PD, dose series – biochemical, fluorescence, selectivity assay for P. falciparum G6PD inhibitor project, dose response (AID 504792); assay type: functional
Glucose-6-phosphate 1-dehydrogenase, sequence (P11413 whole entry): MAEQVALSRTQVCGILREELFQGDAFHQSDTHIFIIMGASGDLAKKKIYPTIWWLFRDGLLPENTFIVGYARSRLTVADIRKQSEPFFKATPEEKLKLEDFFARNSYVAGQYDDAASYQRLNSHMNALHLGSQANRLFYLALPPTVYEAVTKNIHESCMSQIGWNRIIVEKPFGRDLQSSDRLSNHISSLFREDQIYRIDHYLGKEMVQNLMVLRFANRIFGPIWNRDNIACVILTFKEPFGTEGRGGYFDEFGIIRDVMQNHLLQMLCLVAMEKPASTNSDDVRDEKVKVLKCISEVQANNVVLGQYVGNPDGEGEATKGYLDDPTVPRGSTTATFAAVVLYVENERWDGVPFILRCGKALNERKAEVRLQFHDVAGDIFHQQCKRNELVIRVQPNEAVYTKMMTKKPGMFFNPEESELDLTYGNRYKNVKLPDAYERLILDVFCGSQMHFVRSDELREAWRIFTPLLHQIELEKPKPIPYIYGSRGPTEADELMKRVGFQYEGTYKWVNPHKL

CAAX prenyl protease 2 [14] = target: T6, CAAX prenyl protease 2 (Homo sapiens, UniProt Q9Y256); assay: inhibition of Ras-converting CAAX protease Rce1 – biochemical, yeast membranes, quenched-peptide fluorescence, cherry-pick, dose response (AID 588849)
T6 sequence (Q9Y256 whole entry): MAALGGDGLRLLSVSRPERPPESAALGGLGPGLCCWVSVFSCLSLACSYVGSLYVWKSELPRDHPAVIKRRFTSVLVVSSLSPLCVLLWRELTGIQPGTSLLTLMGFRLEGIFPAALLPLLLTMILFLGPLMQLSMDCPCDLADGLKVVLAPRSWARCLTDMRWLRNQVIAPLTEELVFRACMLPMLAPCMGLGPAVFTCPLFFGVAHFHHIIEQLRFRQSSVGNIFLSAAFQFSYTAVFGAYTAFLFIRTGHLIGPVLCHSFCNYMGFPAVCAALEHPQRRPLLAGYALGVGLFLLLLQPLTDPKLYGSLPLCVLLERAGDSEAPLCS

CAAX prenyl protease 2 [15] = target: T7, CAAX prenyl protease 2 (Saccharomyces cerevisiae S288c, UniProt Q03530); assay type: biochemical
T7 sequence (Q03530 whole entry): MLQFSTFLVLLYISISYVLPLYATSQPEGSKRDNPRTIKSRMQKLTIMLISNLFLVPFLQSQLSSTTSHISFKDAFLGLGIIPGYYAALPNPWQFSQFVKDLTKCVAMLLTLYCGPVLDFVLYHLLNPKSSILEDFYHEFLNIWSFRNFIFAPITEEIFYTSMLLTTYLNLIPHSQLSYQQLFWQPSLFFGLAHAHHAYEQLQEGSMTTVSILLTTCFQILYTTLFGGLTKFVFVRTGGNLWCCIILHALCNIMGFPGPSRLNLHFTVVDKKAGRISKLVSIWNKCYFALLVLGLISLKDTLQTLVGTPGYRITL

Trypsin = Trypsin (Sus scrofa, UniProt P00761); assay: trypsin protease activity blockade – biochemical, quenched peptide fluorescence, cherry-pick, selectivity assay for Rce1 protease inhibitor project, dose response (AID 488789)
Trypsin, sequence (P00761 whole entry): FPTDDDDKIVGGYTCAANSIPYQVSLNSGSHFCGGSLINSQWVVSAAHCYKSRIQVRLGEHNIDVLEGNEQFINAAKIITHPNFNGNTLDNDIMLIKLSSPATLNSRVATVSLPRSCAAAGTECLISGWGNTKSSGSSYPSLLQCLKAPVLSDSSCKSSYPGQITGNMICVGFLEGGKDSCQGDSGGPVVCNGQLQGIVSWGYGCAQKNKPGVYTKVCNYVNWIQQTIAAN

SMILES: Cc1coc2c1C(=O)C(=O)c1c-2ccc2c1CCCC2(C)C [TANSHINONE IIA]
- IC50 [1]: 4.82 µM (active)
- AC50 [2]: 88.9 µM (active)
- IC50 (Genome polyprotein): > 100 µM (active)
- CC50 (Vero): 9.09 µM (active)

SMILES: CCCN(CCC)CCCNC(=O)c1cc2c(-c3ccc(OC)c(OC)c3)nn(C)c2s1
- AC50 [3]: 9.65 µM (active)
- AC50 [4]: 3.41 µM (active)
- EC50 [5]: 0.531 µM (active)

SMILES: COCCn1c(C)cc(C(=O)COC(=O)c2ccc([N+](=O)[O-])o2)c1C
- IC50 (cells): < 0.1 µM (active)
- AC50 [6]: 117 µM (active)

SMILES: COc1ccc(C2CCCN2C(=O)Nc2ccc(C)c(C)c2)cc1OC (configuration not stated)
- IC50 [7]: 42.4 µM (active)
- EC50 [8]: > 53 µM (inactive)
- IC50 [9]: > 20 µM (inactive)

SMILES: CC1=Nc2ccccc2/C1=C\c1nc(-c2ccc(C(F)(F)F)cc2)oc1O
- AC50 (Cytochrome P450 2C9): 12.6 µM (inconclusive)
- EC50 [10]: > 99 µM (inactive)
- AC50 [2]: > 100 µM (inactive)
- AC50 (Cytochrome P450 3A4): 28.2 µM (inconclusive)
- EC50 [8]: 10.2 µM (active)
- EC50 [11]: > 99 µM (inactive)

SMILES: COc1ccc(S(=O)(=O)N(C)C[C@@H]2Oc3ncc(/C=C/c4ccccc4)cc3C(=O)N([C@@H](C)CO)C[C@@H]2C)cc1
- AC50 [12]: 2.03 µM (active)

SMILES: COc1ccc(Cl)cc1NC(=O)c1cccc([N+](=O)[O-])c1O
- IC50 [13]: 46.5 µM (inactive)
- IC50 [7]: 2.55 µM (active)
- EC50 [8]: > 53 µM (inactive)
- IC50 [9]: 8.13 µM (active)

SMILES: COc1ccc2c(c1)c1ncn(CCN3CCCCC3)c(=O)c1n2C
- AC50 (CAAX prenyl protease 2 [14]): 4.82 µM (active)
- AC50 [3]: 35 µM (active)
- AC50 (CAAX prenyl protease 2 [15]): 13.9 µM (active)
- AC50 (Trypsin): 13.1 µM (active)
